Test results taken from patent US20220257557A1, “PHARMACEUTICAL COMPOSITION FOR PREVENTING OR TREATING NEUROLOGICAL DISEASES” (GLACEUM INC., priority 2019, published 2022).

How the values were obtained:
[1] = molecular target: T1, rePON1 (PON1, paraoxonase 1) (Homo sapiens, UniProt P27169); assay: Prevention of inhibition of PON1 activity by oxidized linolenic acid (TBBL substrate); assay type: biochemical; settings: for activity at 30 µM: 30 μM compound with rePON1 30 min, then oxidized linolenic acid 2 h, TBBL substrate, normal control 100, negative control 73.64
T1 construct: purchased Thermo Corp. RP-75678
T1 sequence (P27169 whole entry): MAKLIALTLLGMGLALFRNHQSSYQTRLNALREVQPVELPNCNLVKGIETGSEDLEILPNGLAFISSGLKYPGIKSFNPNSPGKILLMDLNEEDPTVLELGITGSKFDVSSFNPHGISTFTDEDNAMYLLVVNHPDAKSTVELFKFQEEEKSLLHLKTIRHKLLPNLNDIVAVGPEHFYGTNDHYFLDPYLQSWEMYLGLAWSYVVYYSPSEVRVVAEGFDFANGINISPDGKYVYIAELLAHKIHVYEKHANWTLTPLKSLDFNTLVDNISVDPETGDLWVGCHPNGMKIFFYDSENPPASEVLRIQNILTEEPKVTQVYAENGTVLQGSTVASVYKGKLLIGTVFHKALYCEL
Description: Based on the fact that the activity of PON1 is inhibited when PON1 is treated with oxidized linolenic acid, an experiment was conducted to confirm the prevention of inhibition of PON1 activity. The activity of PON1 was measured using TBBL (5-thiobutyl butyrolactones) as a substrate.
Specifically, after 9.6 μl of 50 mM Tris-HCl containing 1 mM CaCl2 was added to each of […] Eppendorf tubes, 0.2 μl of each of the compounds of Formulas III-1, IV-1, V-1, IV-2, V-2, II-1, IV-3, V-3, III-2, IV-4, V-4, II-2 and III-3 and glabridine was added to each tube so that the concentration thereof was 30 μM. 0.2 μl of rePON1 (RP-75678, Thermo Corp.) was added to each of the 12 tubes and mixed. Thereafter, each of the mixtures was allowed to react at room temperature for 30 minutes, and 0.5 μl of 1 mM oxidized linolenic acid (OX-LA) dissolved in DMSO was added thereto in order to inhibit rePON1 activity, followed by reaction at room temperature for 2 hours, thus preparing solutions (I).
25 μl of 0.5 mM DTNB dissolved in 50 mM Tris-HCl containing 1 mM CaCl2 was dispensed into each well of a 384-well plate, and then 10 μl of each of the solutions (I) was dispensed into each well, and 20 μl of 2 mM TBBL dissolved in 50 mM Tris-HCl containing 1 mM CaCl2 was added to each well, thus preparing samples. The absorbance of each of the samples at 420 nm was measured using a spectrometer (SpectraMax M2) at 37° C. every 2 minutes for 1 hour.
In addition, a negative control was prepared in the same manner as the above-described method, except that, for the preparation of a solution, 0.2 μl of DMSO was added instead of the compounds of Formulas III-1, IV-1, V-1, IV-2, V-2, II-1, IV-3, V-3, III-2, IV-4, V-4, II-2 and III-3 and glabridin. Furthermore, a normal control was prepared in the same manner as the above-described method, except that, for the preparation of a solution, 0.2 μl of DMSO was added instead of the above-described compounds and glabridin and that oxidized linolenic acid was not added. The absorbance of each of the negative control and the normal control was measured.
Using SoftMax Pro software, the activity of PON1 was calculated from the absorbance using the following Equation 1, and the results are shown in Table 1 below.
Activity=(absorbancesample−absorbanceblank)/(absorbancePON1−absorbanceblank)*100 [Equation 1]

BV2 cells [2] = assay: iNOS and COX-2 expression after LPS (Western blot); assay type: cell-based; settings: 3 h pretreatment (Table 3 amounts), LPS 1 μg/ml 24 h
Description: (§1) RAW264.7 cells or BV2 cells (5×10^5 cells/well) were dispensed in DMEM containing 10% heat-inactivated FBS, 10 IU/mL penicillin G, 100 μg/mL streptomycin and 2 mM L-glutamine and cultured in a 5% CO2 incubator at a temperature of 37° C.
(§2) The compound of Formula III-3, III-4, V-3, III-1, IV-1, V-1, IV-2, V-2 or II-2 was added to the RAW264.7 cells or BV2 cells, and the toxicities of the compounds were determined by MTT assay.
(§3) The pretreated cells of Experimental Example 4-1 were treated with 1 μg/ml of LPS for 24 hours, and then the expression levels of iNOS and COX-2 were observed through Western blot, and the production of NO and PGE2 was measured.

RAW264.7 cells [3] = assay: iNOS and COX-2 expression after LPS (Western blot); assay type: cell-based; settings: 3 h pretreatment (Table 3 amounts), LPS 1 μg/ml 24 h
Description: as §1, §2, §3

BV2 cells [4] = assay: NO and PGE2 production after LPS; assay type: cell-based; settings: 3 h pretreatment (Table 3 amounts), LPS 1 μg/ml 24 h
Description: as §1, §2, §3

RAW264.7 cells [5] = assay: NO and PGE2 production after LPS; assay type: cell-based; settings: 3 h pretreatment (Table 3 amounts), LPS 1 μg/ml 24 h
Description: as §1, §2, §3

BV2 cells [6] = assay: IL-1β, IL-6 and TNF-α mRNA expression after LPS (RT-PCR); assay type: cell-based; settings: 3 h pretreatment (Table 3 amounts), LPS 1 μg/ml 6 h
Description: as §1, §2
(§4) The pretreated cells of Experimental Example 4-1 were treated with 1 μg/ml of LPS for 6 hours, and then the mRNA expression level of the cytokine IL-1β, IL-6 or TNF-α produced in the inflammatory response was analyzed using RT-PCR.

RAW264.7 cells [7] = assay: as above; assay type: cell-based; settings: 3 h pretreatment (Table 3 amounts), LPS 1 μg/ml 6 h
Description: as §1, §2, §4

RAW264.7 cells [8] = assay: Transcription of NF-κB protein (p65, p50) into nucleus after LPS (Western blot); assay type: cell-based; settings: 3 h pretreatment (Table 3 amounts), LPS 1 μg/ml 1 h
Description: RAW264.7 cells or BV2 cells (5×10^5 cells/well) were dispensed in DMEM containing 10% heat-inactivated FBS, 10 IU/mL penicillin G, 100 μg/mL streptomycin and 2 mM L-glutamine and cultured in a 5% CO2 incubator at a temperature of 37° C. […]
(§5) The pretreated cells of Experimental Example 4-1 were treated with 1 μg/ml of LPS for 1 hour, and then the level of transcription of NF-κB protein into the nucleus of each of p65 and p50 was analyzed through Western blot.

BV2 cells [9] = assay: as above; assay type: cell-based; settings: 3 h pretreatment (Table 3 amounts), LPS 1 μg/ml 1 h
Description: as §1, §2, §5

CCCc1ccc([C@H]2COc3c(ccc4c3CCC(C)(C)O4)C2)c(O)c1 [Formula V-3, (S)-2-(8,8-dimethyl-2,3,4,8,9,10-hexahydropyrano[2,3-f]chromen-3-yl)-5-propylphenol]
concentration-dependently decreased: expression level of COX-2 (BV2 cells [2]) | expression level of iNOS (BV2 cells [2]) | expression level of COX-2 (RAW264.7 cells [3]) | expression level of iNOS (RAW264.7 cells [3]) | production of NO (BV2 cells [4]) | production of PGE2 (BV2 cells [4]) | production of NO (RAW264.7 cells [5]) | production of PGE2 (RAW264.7 cells [5]) | mRNA expression level of IL-1β (BV2 cells [6]) | mRNA expression level of IL-6 (BV2 cells [6]) | mRNA expression level of TNF-α (BV2 cells [6]) | mRNA expression level of IL-1β (RAW264.7 cells [7]) | mRNA expression level of IL-6 (RAW264.7 cells [7]) | mRNA expression level of TNF-α (RAW264.7 cells [7]) | level of transcription of NF-κB protein into the nucleus, p50 (RAW264.7 cells [8]) | level of transcription of NF-κB protein into the nucleus, p65 (RAW264.7 cells [8]) | level of transcription of NF-κB protein into the nucleus, p50 (BV2 cells [9]) | level of transcription of NF-κB protein into the nucleus, p65 (BV2 cells [9])
95.1%: activity at 30 µM [1]
prevented: inhibition of rePON1 activity by oxidized linolenic acid ([1]; compound 30 μM, result in words)
greater: extent to which inhibition of rePON1 activity was prevented, compared with glabridin ([1]; compound 30 μM vs glabridin 30 μM, result in words)

CC1(C)C=Cc2c(ccc3c2OC[C@@H](c2ccc(O)cc2O)C3)O1 [Glabridin, glabridin, reference compound]
did not decrease: expression level of COX-2 (BV2 cells [2]) | expression level of iNOS (BV2 cells [2]) | expression level of COX-2 (RAW264.7 cells [3]) | expression level of iNOS (RAW264.7 cells [3]) | production of NO (BV2 cells [4]) | production of PGE2 (BV2 cells [4]) | production of NO (RAW264.7 cells [5]) | production of PGE2 (RAW264.7 cells [5]) | mRNA expression level of IL-1β (BV2 cells [6]) | mRNA expression level of IL-6 (BV2 cells [6]) | mRNA expression level of TNF-α (BV2 cells [6]) | mRNA expression level of IL-1β (RAW264.7 cells [7]) | mRNA expression level of IL-6 (RAW264.7 cells [7]) | mRNA expression level of TNF-α (RAW264.7 cells [7]) | level of transcription of NF-κB protein into the nucleus, p50 (RAW264.7 cells [8]) | level of transcription of NF-κB protein into the nucleus, p65 (RAW264.7 cells [8]) | level of transcription of NF-κB protein into the nucleus, p50 (BV2 cells [9]) | level of transcription of NF-κB protein into the nucleus, p65 (BV2 cells [9])
82.8%: activity at 30 µM [1]
